Target: 5-HT2A receptor (Homo sapiens (Human), UniProt P28223)
Assay: Receptor Selection and Amplification (R-SAT) functional antagonist assay;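 note: Read-out is β-galactosidase marker gene activity with ONPG substrate, measured after five days of growth in 96-well plates holding the test compound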
Conditions: not given

Chain of 5-HT2A receptor (P28223 whole entry): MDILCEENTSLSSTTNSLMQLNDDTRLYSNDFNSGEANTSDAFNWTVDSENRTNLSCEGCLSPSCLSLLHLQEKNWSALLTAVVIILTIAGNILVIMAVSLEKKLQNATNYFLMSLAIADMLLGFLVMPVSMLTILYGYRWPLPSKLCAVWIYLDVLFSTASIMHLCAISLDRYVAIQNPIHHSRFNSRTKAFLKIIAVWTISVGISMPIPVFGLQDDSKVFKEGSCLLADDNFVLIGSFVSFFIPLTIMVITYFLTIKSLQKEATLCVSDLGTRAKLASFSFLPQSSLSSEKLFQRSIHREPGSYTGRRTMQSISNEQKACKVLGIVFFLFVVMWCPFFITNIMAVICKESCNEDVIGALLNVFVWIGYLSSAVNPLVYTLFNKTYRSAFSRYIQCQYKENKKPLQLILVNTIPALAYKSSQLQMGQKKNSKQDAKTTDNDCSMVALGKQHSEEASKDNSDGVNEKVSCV

Row | Ki | SMILES | 5-HT2a pKi
1 | 0.1 nM | CC(C)Oc1ccc(COC(=O)N(Cc2ccc(F)cc2)[C@H]2CCN(C)C[C@H]2F)cc1 (racemic) [4a/4b, [4-(propan-2-yloxy)phenyl]methyl N-[(3R,4S)-3-fluoro-1-methylpiperidin-4-yl]-N-[(4-fluorophenyl)methyl]carbamate (4a) and [4-(propan-2-yloxy)phenyl]methyl N-[(3S,4R)-3-fluoro-1-methylpiperidin-4-yl]-N-[(4-fluorophenyl)methyl]carbamate (4b)] | –
2 | 0.251 nM | CC(C)COc1ccc(COC(=O)N(Cc2ccc(F)cc2)[C@H]2CCNC[C@H]2F)cc1 (racemic) [5a/5b, [4-(2-methylpropoxy)phenyl]methyl N-[(4-fluorophenyl)methyl]-N-[(3R,4S)-3-fluoropiperidin-4-yl]carbamate (5a) and [4-(2-methylpropoxy)phenyl]methyl N-[(4-fluorophenyl)methyl]-N-[(3S,4R)-3-fluoropiperidin-4-yl]carbamate (5b)] | –
3 | 0.251 nM | CC(C)COc1ccc(COC(=O)N(Cc2ccc(F)cc2)[C@H]2CCN(C)C[C@H]2F)cc1 (racemic) [6a/6b, [4-(2-methylpropoxy)phenyl]methyl N-[(3R,4S)-3-fluoro-1-methylpiperidin-4-yl]-N-[(4-fluorophenyl)methyl]carbamate (6a) and [4-(2-methylpropoxy)phenyl]methyl N-[(3S,4R)-3-fluoro-1-methylpiperidin-4-yl]-N-[(4-fluorophenyl)methyl]carbamate (6b)] | –
4 | 63.1 nM | CC(C)COc1ccc(CCOC(=O)N(Cc2ccc(F)cc2)[C@H]2CCNC[C@H]2F)cc1 (racemic) [9a/9b, 2-[4-(2-methylpropoxy)phenyl]ethyl N-[(4-fluorophenyl)methyl]-N-[(3R,4S)-3-fluoropiperidin-4-yl]carbamate; trifluoroacetic acid (9a) and 2-[4-(2-methylpropoxy)phenyl]ethyl N-[(4-fluorophenyl)methyl]-N-[(3S,4R)-3-fluoropiperidin-4-yl]carbamate; trifluoroacetic acid (9b)] | –
5 | 15.8 nM | CC(C)COc1ccc(CCOC(=O)N(Cc2ccc(F)cc2)[C@H]2CCN(C)C[C@H]2F)cc1 (racemic) [10a/10b, 2-[4-(2-methylpropoxy)phenyl]ethyl N-[(3R,4S)-3-fluoro-1-methylpiperidin-4-yl]-N-[(4-fluorophenyl)methyl]carbamate (10a) and 2-[4-(2-methyl-propoxy)phenyl]ethyl N-[(3S,4R)-3-fluoro-1-methylpiperidin-4-yl]-N-[(4-fluorophenyl)-methyl]carbamate (10b)] | –
6 | 0.0158 nM | CC(C)Oc1ccc(COC(=O)N(Cc2ccc(F)cc2)[C@H]2CCN3CCC[C@H]3C2)cc1 [Compound 18, [4-(propan-2-yloxy)phenyl]methyl N-[(7S,8aS)-octahydroindolizin-7-yl]-N-[(4-fluorophenyl)methyl]carbamate] | –

Continued, compound first:

Row | SMILES | Ki | 5-HT2a pKi
7 | CC(C)Oc1ccc(COC(=O)N(Cc2ccc(F)cc2)[C@H]2CCNC[C@H]2F)cc1 (racemic) [3a/3b, [4-(propan-2-yloxy)phenyl]methyl N-[(4-fluorophenyl)methyl]-N-[(3R,4S)-3-fluoropiperidin-4-yl]carbamate (3a) and [4-(propan-2-yloxy)phenyl]methyl N-[(4-fluorophenyl)methyl]-N-[(3S,4R)-3-fluoropiperidin-4-yl]carbamate (3b)] | 0.1 nM | –
8 | CC(C)Oc1ccc(COC(=O)N(Cc2ccc(F)cc2F)C2CCNCC2)cc1.O=C(O)C(F)(F)F [Compound 11, [4-(propan-2-yloxy)phenyl]methyl N-[(2,4-difluorophenyl)methyl]-N-(piperidin-4-yl)carbamate] | – | 9.6
9 | CCOc1ccc(CC(=O)N(Cc2ccc(F)cc2F)C2CCN(C)CC2)cc1.O=C(O)C(F)(F)F [Compound 23, N-(2,4-difluorobenzyl)-2-(4-ethoxyphenyl)-N-(1-methylpiperidin-4-yl)acetamide; trifluoroacetic acid] | – | 7.8
10 | CCCCOc1ccc(CC(=O)N(Cc2ccc(F)cc2F)C2CCN(C)CC2)cc1.O=C(O)C(F)(F)F [Compound 24, N-(2,4-difluorobenzyl)-2-(4-butoxyphenyl)-N-(1-methylpiperidin-4-yl)acetamide trifluoroacetic acid] | – | 7.2
11 | CN1CCC(N(Cc2ccc(F)cc2F)C(=O)OCc2ccc(OCCCF)cc2)CC1.O=C(O)C(F)(F)F [Compound 27, 4-(3-fluoropropoxy)benzyl (2,4-difluorobenzyl)(1-methylpiperidin-4-yl)carbamate; trifluoroacetic acid] | – | 9.8
12 | CN1CCC(N(Cc2ccc(F)cc2F)C(=O)OCc2ccc(OC(CF)CF)cc2)CC1.O=C(O)C(F)(F)F [Compound 28, 4-((1,3-difluoropropan-2-yl)oxy)benzyl (2,4-difluorobenzyl)(1-methylpiperidin-4-yl)carbamate; trifluoroacetic acid] | – | 10.1
13 | CC(C)COc1ccc(CC(=O)N(Cc2ccc(Cl)cc2F)C2CCN(C)CC2)cc1.O=C(O)C(F)(F)F [Compound 31, N-[(4-chloro-2-fluorophenyl)methyl]-N-(1-methylpiperidin-4-yl)-2-[4-(2-methylpropoxy)phenyl]acetamide; trifluoroacetic acid] | – | 7.3
14 | COc1cc(F)c(CN(C(=O)Cc2ccc(OCC(C)C)cc2)C2CCN(C)CC2)c(F)c1.O=C(O)C(F)(F)F [Compound 33, N-[(2,6-difluoro-4-methoxyphenyl)methyl]-N-(1-methylpiperidin-4-yl)-2-[4-(2-methylpropoxy)phenyl]acetamide; trifluoroacetic acid] | – | 7.5

Same assay, conditions: R-SAT, transfected NIH3T3 cells; guidance: high affinity pKi≥8.4, moderate affinity pKi≥7.7

Row | 5-HT2a pKi | SMILES
15 | 9.7 | CC(C)Oc1ccc(COC(=O)N(Cc2ccc(Cl)cc2)C2CCN(C)CC2)cc1 [Compound 1, [4-(propan-2-yloxy)phenyl]methyl N-[(4-chlorophenyl)methyl]-N-(1-methylpiperidin-4-yl)carbamate]
16 | 9.9 | CC(C)COc1ccc(COC(=O)N(Cc2ccc(F)cc2)C2CCN(C)CC2)cc1 [Compound 2, [4-(2-methylpropoxy)phenyl]methyl N-[(4-fluorophenyl)methyl]-N-(1-methylpiperidin-4-yl)carbamate]
17 | 9.6 | CC(C)Oc1ccc(COC(=O)N(Cc2ccc(F)cc2)C2CCN(C)CC2)cc1 [Compound 12, [4-(propan-2-yloxy)phenyl]methyl N-[(4-fluorophenyl)methyl]-N-(1-methylpiperidin-4-yl)carbamate]
18 | 9.9 | CC(C)Oc1ccc(COC(=O)N(Cc2ccc(F)cc2F)C2CCN(C)CC2)cc1 [Compound 13, [4-(propan-2-yloxy)phenyl]methyl N-[(2,4-difluorophenyl)methyl]-N-(1-methylpiperidin-4-yl)carbamate]
19 | 7.6 | CC(C)COc1ccc(COC(=O)N(Cc2ccc(F)cc2F)C2CCN(C)CC2)cc1 [Compound 14, [4-(2-methylpropoxy)phenyl]methyl N-[(2,4-difluorophenyl)methyl]-N-(1-methylpiperidin-4-yl)carbamate]
20 | 9.3 | COc1ccc(COC(=O)N(Cc2ccc(F)cc2F)C2CCN(C)CC2)cc1 [Compound 15, (4-methoxyphenyl)methyl N-[(2,4-difluorophenyl)methyl]-N-(1-methylpiperidin-4-yl)carbamate]
21 | 7.6 | COc1ccc(CSC(=O)N(Cc2ccc(F)cc2F)C2CCN(C)CC2)cc1 [Compound 16, N-[(2,4-difluorophenyl)methyl]-N-(1-methylpiperidin-4-yl){[(4-methoxyphenyl)methyl]sulfanyl}formamide]
22 | 7.5 | CC(C)Oc1ccc(C(OC(=O)N(Cc2ccc(F)cc2)C2CCN(C)CC2)C(F)(F)F)cc1 (stereo not drawn) [Compound 17, 2,2,2-trifluoro-1-[4-(propan-2-yloxy)phenyl]ethyl N-[(4-fluorophenyl)methyl]-N-(1-methylpiperidin-4-yl)carbamate]
23 | 9.7 | CCOc1ccc(COC(=O)N(Cc2ccc(F)cc2F)C2CCN(C)CC2)cc1 [Compound 25, 4-ethoxybenzyl (2,4-difluorobenzyl)(1-methylpiperidin-4-yl)carbamate]
24 | 9.3 | C=CCOc1ccc(COC(=O)N(Cc2ccc(F)cc2F)C2CCN(C)CC2)cc1 [Compound 26, 4-(allyloxy)benzyl (2,4-difluorobenzyl)(1-methylpiperidin-4-yl)carbamate]
25 | 10.2 | CN1CCC(N(Cc2ccc(F)cc2F)C(=O)OCc2ccc(OCC(C)(C)O)cc2)CC1 [Compound 29, 4-(2-hydroxy-2-methylpropoxy)benzyl (2,4-difluorobenzyl)(1-methylpiperidin-4-yl)carbamate]
26 | 10.5 | CN1CCC(N(Cc2ccc(F)cc2F)C(=O)OCc2ccc(OC3CC3)cc2)CC1 [Compound 30, 4-cyclopropoxybenzyl (2,4-difluorobenzyl)(1-methylpiperidin-4-yl)carbamate]

Further lines, the compound ahead of its results:

Row | SMILES | 5-HT2a pKi
27 | CC(C)Oc1ccc(CC(=O)N(Cc2ccc(F)cc2F)C2CCN(C)CC2)cc1.O=C(O)C(F)(F)F [Compound 19, N-[(2,4-difluorophenyl)methyl]-N-(1-methylpiperidin-4-yl)-2-[4-(propan-2-yloxy)phenyl]acetamide; trifluoroacetic acid] | 8.3
28 | CC(C)COc1ccc(CC(=O)N(Cc2ccc(F)cc2)C2CCN(C)CC2)c(F)c1.O=C(O)C(F)(F)F [Compound 20, 2-[2-fluoro-4-(2-methylpropoxy)phenyl]-N-[(4-fluorophenyl)methyl]-N-(1-methylpiperidin-4-yl)acetamide; trifluoroacetic acid] | 8.2
29 | CC(C)COc1ccc(CC(=O)N(Cc2ccc(F)cc2)C2CCN(C)CC2)cc1F.O=C(O)C(F)(F)F [Compound 21, 2-[3-fluoro-4-(2-methylpropoxy)phenyl]-N-[(4-fluorophenyl)methyl]-N-(1-methylpiperidin-4-yl)acetamide; trifluoroacetic acid] | 8.6
30 | CC(C)COc1ccc(CC(=O)N(Cc2ccc(F)cc2F)C2CCN(C)CC2)cc1.O=C(O)C(F)(F)F [Compound 22, N-(2,4-difluorobenzyl)-2-(4-isobutoxyphenyl)-N-(1-methylpiperidin-4-yl)acetamide; trifluoroacetic acid] | 8.2
